target: HIV reverse transcriptase (Human immunodeficiency virus type 1 group M subtype B, UniProt P03366); assay: Reverse transcriptase scintillation proximity assay (Example 4, Table 2); format: biochemical; conditions: 10 μM inhibitor; relative to dimethyl sulfoxide = 100%; 3 min
Protocol: Reverse transcriptase ("RT") activity is measured using a scintillation proximity assay kit available from Amersham Life Sciences, Inc., which uses a biotin/streptavidin bead capture system. RNA-dependent polymerase activity is measured using purified […] and a synthetic 17mer/50mer RNA-DNA template-primer containing biotin at the 5' end of the DNA. The template-primer, buffer, dNTP, and inhibitor are incubated for 10 minutes at 37° C. before the RT is added. The final 100 μl reaction mixture contains: 39 nm of template primer, buffer (40 mM tris HCl at pH 8.0, 10 mM MgCl2, 60 mM KCl, 10 mM dithiothreitol); 75 nM of each dNTP except dTTP; 25 nM dTTP and 35 nM tritium labeled d*TTP; 10 μM inhibitor; and 1.0-2.0 μg of RT. After three minute incubation, the reaction is quenched with 40 μl of 0.56M EDTA. Then 10 μl of streptavidin SPA beads (in suspension) are added and incubated at 37° C. for 10 minutes. Finally, 850 μl of a buffer containing 10 mM Tris HCl pH 7.4 and 0.15M NaCl is added. The signal is produced by biotinylated polymers incorporating d*TTP binding to the streptavidin beads which stimulate the scintillant. The amount of d*TTP incorporated in the polymer is measured with a scintillation counter.
Compounds showing good inhibition will give a low number of counts/min (cpm). This number is related to a standard, dimethyl sulfoxide, which is given an arbitrary 100% relative activity. All cpm data in a single run are given a percent of this standard.

| Structure (SMILES) | % RT activity remaining at 10 μM |
| --- | --- |
| O=C(Nc1ccc2c(O)c(N=Nc3ccc([As](=O)(O)O)cc3)c(S(=O)(=O)O)cc2c1)Nc1ccc2c(O)c(N=Nc3ccc([As](=O)(O)O)cc3)c(S(=O)(=O)O)cc2c1 [Compound 48] | 17% |

same assay, conditions: 0.05 h, 10 μM inhibitor; relative to dimethyl sulfoxide = 100%; read-out: % RT activity remaining at 10 μM

| Structure (SMILES) | remaining activity at 10 µM |
| --- | --- |
| O=C(Nc1ccc2c(O)cc(S(=O)(=O)O)cc2c1)Nc1ccc2cc(S(=O)(=O)O)cc(O)c2c1 [Compound 9] | 75% |
| COc1cc(C(=O)O)ccc1N=Nc1c(S(=O)(=O)O)cc2cc(NC(=O)c3ccc(C(=O)Nc4ccc5c(O)c(N=Nc6ccc(C(=O)O)cc6OC)c(S(=O)(=O)O)cc5c4)cc3)ccc2c1O [Compound 167] | 0.26% |
| O=C(O)c1cc(N=Nc2c(S(=O)(=O)O)cc3cc(NC(=O)c4cc(=O)cc(C(=O)Nc5ccc6c(O)c(N=Nc7cc(C(=O)O)cc(C(=O)O)c7)c(S(=O)(=O)O)cc6c5)o4)ccc3c2O)cc(C(=O)O)c1 [Compound 143] | 0.23% |
| CC(=O)Nc1ccc2c(OC(C)=O)cc(S(=O)(=O)O)cc2c1 [Compound 22] | 100% |
| COc1cc(N=Nc2c(S(=O)(=O)O)cc3cc(NC(=O)c4cccc(C(=O)Nc5ccc6c(O)c(N=Nc7cc(OC)c(OC)c(OC)c7C(=O)O)c(S(=O)(=O)O)cc6c5)n4)ccc3c2O)c(C(=O)O)c(OC)c1OC [Compound 128] | 5% |
| O=C(O)CCCCCc1ccc(N=Nc2c(S(=O)(=O)O)cc3cc(NC(=O)c4cccc(C(=O)Nc5ccc6c(O)c(N=Nc7ccc(CCCCCC(=O)O)cc7)c(S(=O)(=O)O)cc6c5)n4)ccc3c2O)cc1 [Compound 121] | 0.16% |
| O=C(O)CCc1ccc(N=Nc2c(S(=O)(=O)O)cc3cc(NC(=O)c4ccc(C(=O)Nc5ccc6c(O)c(N=Nc7ccc(CCC(=O)O)cc7)c(S(=O)(=O)O)cc6c5)cc4)ccc3c2O)cc1 [Compound 164] | 0.15% |
| Cc1cc(C(=O)O)ccc1N=Nc1c(S(=O)(=O)O)cc2cc(NC(=O)c3ccc(C(=O)Nc4ccc5c(O)c(N=Nc6ccc(C(=O)O)cc6C)c(S(=O)(=O)O)cc5c4)cc3)ccc2c1O [Compound 168] | 0.5% |
| COc1ccc(N=Nc2c(S(=O)(=O)O)cc3cc(NC(=O)c4ccc(C(=O)Nc5ccc6c(O)c(N=Nc7ccc(OC)cc7)c(S(=O)(=O)O)cc6c5)cc4)ccc3c2O)cc1 [Compound 176] | 60% |
| O=C(Nc1ccc2c(O)cc(S(=O)(=O)O)cc2c1)c1ccccc1 [Compound 21] | 108% |
| O=C(O)Cc1ccc(N=Nc2c(S(=O)(=O)O)cc3cc(NC(=O)c4cccc(C(=O)Nc5ccc6c(O)c(N=Nc7ccc(CC(=O)O)cc7)c(S(=O)(=O)O)cc6c5)n4)ccc3c2O)cc1 [Compound 119] | 0.29% |
| O=C(Nc1ccc2c(O)cc(S(=O)(=O)O)cc2c1)Nc1cccc2c(=O)[nH][nH]c(=O)c12 [Compound 16] | 81% |
| Cc1cc(C(=O)O)ccc1N=Nc1c(S(=O)(=O)O)cc2cc(Nc3c(Nc4ccc5c(O)c(N=Nc6ccc(C(=O)O)cc6C)c(S(=O)(=O)O)cc5c4)c(=O)c3=O)ccc2c1O [Compound 192] | 0.3% |
| O=C(Nc1ccc2c(O)c(N=Nc3ccc(Br)cc3Br)c(S(=O)(=O)O)cc2c1)c1ccc(C(=O)Nc2ccc3c(O)c(N=Nc4ccc(Br)cc4Br)c(S(=O)(=O)O)cc3c2)cc1 [Compound 182] | 35% |
| O=C(O)Cc1ccc(N=Nc2c(S(=O)(=O)O)cc3cc(NC(=O)c4cc(O)cc(C(=O)Nc5ccc6c(O)c(N=Nc7ccc(CC(=O)O)cc7)c(S(=O)(=O)O)cc6c5)n4)ccc3c2O)cc1 [Compound 147] | 0.3% |
| Cc1cc(C(=O)O)ccc1N=Nc1c(S(=O)(=O)O)cc2cc(NC(=O)c3cc(=O)cc(C(=O)Nc4ccc5c(O)c(N=Nc6ccc(C(=O)O)cc6C)c(S(=O)(=O)O)cc5c4)o3)ccc2c1O [Compound 144] | 0.26% |
| O=C(O)CCc1ccc(N=Nc2c(S(=O)(=O)O)cc3cc(NC(=O)c4cccc(C(=O)Nc5ccc6c(O)c(N=Nc7ccc(CCC(=O)O)cc7)c(S(=O)(=O)O)cc6c5)n4)ccc3c2O)cc1 [Compound 120] | 0.21% |
| O=C(Nc1ccc2c(c1)C(=O)c1ccccc1C2=O)Nc1ccc2c(O)cc(S(=O)(=O)O)cc2c1 [Compound 15] | 88% |
| COC(=O)C(Cc1c[nH]c2ccccc12)NC(=O)Nc1ccc2c(O)cc(S(=O)(=O)O)cc2c1 (stereo not drawn) [Compound 17] | 82% |
| CCOC(=O)c1ccc(NC(=O)Nc2ccc3c(O)cc(S(=O)(=O)O)cc3c2)cc1 [Compound 25] | 86% |

| Structure (SMILES) | remaining activity at 10 µM |
| --- | --- |
| COC(=O)c1cc(NC(=O)Nc2ccc3cc(S(=O)(=O)O)cc(O)c3c2)cc(C(=O)OC)c1 [Compound 27] | 80% |
| O=C(O)CCCCCc1ccc(N=Nc2c(S(=O)(=O)O)cc3cc(NC(=O)c4cc(=O)cc(C(=O)Nc5ccc6c(O)c(N=Nc7ccc(CCCCCC(=O)O)cc7)c(S(=O)(=O)O)cc6c5)o4)ccc3c2O)cc1 [Compound 135] | 0.16% |
| O=C(O)CCc1ccc(N=Nc2c(S(=O)(=O)O)cc3cc(NC(=O)c4cc(=O)cc(C(=O)Nc5ccc6c(O)c(N=Nc7ccc(CCC(=O)O)cc7)c(S(=O)(=O)O)cc6c5)o4)ccc3c2O)cc1 [Compound 134] | 0.25% |
| O=C(O)c1ccc(N=Nc2c(S(=O)(=O)O)cc3cc(NC(=O)c4cccc(C(=O)Nc5ccc6c(O)c(N=Nc7ccc(C(=O)O)cc7)c(S(=O)(=O)O)cc6c5)n4)ccc3c2O)cc1 [Compound 118] | 0.25% |
| O=C(O)/C=C/c1ccc(N=Nc2c(S(=O)(=O)O)cc3cc(NC(=O)c4ccc(C(=O)Nc5ccc6c(O)c(N=Nc7ccc(/C=C/C(=O)O)cc7)c(S(=O)(=O)O)cc6c5)cc4)ccc3c2O)cc1 [Compound 161] | 25% |
| O=C1c2ccccc2C(=O)N1c1ccc2c(O)cc(S(=O)(=O)O)cc2c1 [Compound 23] | 100% |
| O=C(O)CC(C(=O)O)c1ccc(N=Nc2c(S(=O)(=O)O)cc3cc(NC(=O)c4ccc(C(=O)Nc5ccc6c(O)c(N=Nc7ccc(C(CC(=O)O)C(=O)O)cc7)c(S(=O)(=O)O)cc6c5)cc4)ccc3c2O)cc1 (stereo not drawn) [Compound 166] | 0.14% |
| O=C(O)/C=C/c1ccc(N=Nc2c(S(=O)(=O)O)cc3cc(NC(=O)c4cc(O)cc(C(=O)Nc5ccc6c(O)c(N=Nc7ccc(/C=C/C(=O)O)cc7)c(S(=O)(=O)O)cc6c5)n4)ccc3c2O)cc1 [Compound 151] | 0.2% |
| COc1cc(C(=O)O)ccc1N=Nc1c(S(=O)(=O)O)cc2cc(NC(=O)c3cc(O)cc(C(=O)Nc4ccc5c(O)c(N=Nc6ccc(C(=O)O)cc6OC)c(S(=O)(=O)O)cc5c4)n3)ccc2c1O [Compound 153] | 0.15% |
| COC(=O)c1cc(NC(=O)Nc2ccc3c(S(=O)(=O)O)cc(S(=O)(=O)O)cc3c2)cc(C(=O)OC)c1 [Compound 26] | 88% |
| COC(=O)c1ccccc1NC(=O)Nc1ccc2cc(S(=O)(=O)O)cc(O)c2c1 [Compound 24] | 90% |
| O=C(O)CC(C(=O)O)c1ccc(N=Nc2c(S(=O)(=O)O)cc3cc(NC(=O)c4cccc(C(=O)Nc5ccc6c(O)c(N=Nc7ccc(C(CC(=O)O)C(=O)O)cc7)c(S(=O)(=O)O)cc6c5)n4)ccc3c2O)cc1 (stereo not drawn) [Compound 124] | 1.2% |
| O=C(Nc1ccc2ccc(S(=O)(=O)O)cc2c1)Nc1ccc2c(O)cc(S(=O)(=O)O)cc2c1 [Compound 7] | 78% |
| Cc1ccc(CO)cc1N=Nc1c(S(=O)(=O)O)cc2cc(NC(=O)c3ccc(C(=O)Nc4ccc5c(O)c(N=Nc6cc(CO)ccc6C)c(S(=O)(=O)O)cc5c4)cc3)ccc2c1O [Compound 180] | 45% |
| COc1cc(C(=O)O)c(N=Nc2c(S(=O)(=O)O)cc3cc(NC(=O)c4ccc(C(=O)Nc5ccc6c(O)c(N=Nc7c(C(=O)O)cc(OC)c(OC)c7OC)c(S(=O)(=O)O)cc6c5)cc4)ccc3c2O)c(OC)c1OC [Compound 177] | 0.17% |
| COc1cc(C(=O)O)ccc1N=Nc1c(S(=O)(=O)O)cc2cc(NC(=O)c3cc(=O)cc(C(=O)Nc4ccc5c(O)c(N=Nc6ccc(C(=O)O)cc6OC)c(S(=O)(=O)O)cc5c4)o3)ccc2c1O [Compound 139] | 0.34% |
| COC(=O)c1ccccc1NC(=O)Nc1ccc2c(O)cc(S(=O)(=O)O)cc2c1 [Compound 29] | 108% |
| O=C(O)c1cccc(N=Nc2c(S(=O)(=O)O)cc3cc(Nc4c(Nc5ccc6c(O)c(N=Nc7cccc(C(=O)O)c7)c(S(=O)(=O)O)cc6c5)c(=O)c4=O)ccc3c2O)c1 [Compound 190] | 0.5% |
| O=C(O)/C=C/c1ccc(N=Nc2c(S(=O)(=O)O)cc3cc(Nc4c(Nc5ccc6c(O)c(N=Nc7ccc(/C=C/C(=O)O)cc7)c(S(=O)(=O)O)cc6c5)c(=O)c4=O)ccc3c2O)cc1 [Compound 185] | 0.6% |

same assay, conditions: read-out: IC50 (RT activity)

| Structure (SMILES) | IC50 |
| --- | --- |
| O=C(O)c1c(F)c(F)c(N=Nc2c(S(=O)(=O)O)cc3cc(Nc4c(Nc5ccc6c(O)c(N=Nc7c(F)c(F)c(C(=O)O)c(F)c7F)c(S(=O)(=O)O)cc6c5)c(=O)c4=O)ccc3c2O)c(F)c1F [Compound 194] | 440 nM |
| O=C(Nc1ccc2c(O)c(N=Nc3ccc(-c4nnn[nH]4)cc3)c(S(=O)(=O)O)cc2c1)Nc1ccc2c(O)c(N=Nc3ccc(-c4nnn[nH]4)cc3)c(S(=O)(=O)O)cc2c1 [Compound 159] | 220 nM |

Source: patent US6140368A, “Naphthols useful in antiviral methods” (The Regents of the University of California, priority 1998, dated 2000)
